Measured values taken from patent US20160031839A1, “ARGININE […] INHIBITORS AND USES THEREOF” (EPIZYME, INC., priority 2013, published 2016).
Read-outs that look alike come from different tables or passages of the source.

Biological target: T1, PRMT6 (Homo sapiens, UniProt Q96LA8)
T1 construct: Expressed full-length human Flag- and His-tagged PRMT6 protein was purified from cell paste; made in house; host or cells: HEK 293F cells (BacMam baculovirus)
Experiment: PRMT6 Biochemical Assay
Excerpt: Peptide representative of human histone H4 residues 36-50 was synthesized with an N-terminal linker-affinity tag motif and a C-terminal amide cap by 21st Century Biochemicals. The peptide was purified by high-performance liquid chromatography (HPLC) to greater than 95% purity and confirmed by liquid chromatography mass spectrometry (LC-MS). The sequence was Biot-Ahx-[…]-amide and contained a monomethylated lysine at position 44 (SEQ ID NO.:5).
Full-length human PRMT6 (NM_018137.2) transcript clone was amplified from an HEK 293 cDNA library, incorporating a flanking 5′ sequence encoding a FLAG tag ([…]) (SEQ ID NO.:6) fused directly to Ser 2 of PRMT6 and a 3′ sequence encoding a hexa His sequence (HHHHHH) (SEQ ID NO.:17) fused directly to Asp 375. The amplified gene was subcloned into pFastBacMam (Viva Biotech).
Column was washed with 20 mM imidazole in the same buffer and Flag-PRMT6-His was eluted with 150 mM imidazole. Pooled fractions were dialysed against buffer Ni-A and further purified by anti-flag M2 affinity chromatography. Flag-PRMT6-His was eluted with 200 ug/ml FLAG peptide in the same buffer. Pooled fractions were dialysed in 20 mM Tris, 150 mM NaCl, 10% glycerol and 5 mM (3-mercaptoethanol, pH 7.8. The purity of recovered protein was 95%.
General Procedure for PRMT6 Enzyme Assays on Peptide Substrates.
The assays were all performed in a buffer consisting of 20 mM Bicine (pH=7.6), 1 mM TCEP, 0.005% BSG, and 0.002% Tween 20, prepared on the day of use. Compounds in 100% DMSO (1 ul) were spotted into a polypropylene 384-well V-bottom plates (Greiner) using a Platemate Plus outfitted with a 384-channel head (Thermo Scientific). DMSO (1 ul) was added to Columns 11, 12, 23, 24, rows A-H for the maximum signal control and 1 ul of SAH, a known product and inhibitor of PRMT6, was added to columns 11, 12, 23, 24, rows I-P for the minimum signal control. A cocktail (40 ul) containing the PRMT6 enzyme was added by Multidrop Combi (Thermo-Fisher). The compounds were allowed to incubate with PRMT6 for 30 min at room temperature, then a cocktail (10 ul) containing SAM and peptide was added to initiate the reaction (final volume=51 ul). The final concentrations of the components were as follows: PRMT6 was 1 nM, ^3H-SAM was 200 nM, non-radiolabeled SAM was 250 nM, peptide was 75 nM, SAH in the minimum signal control wells was 1 mM, and the DMSO concentration was 2%. The assays were stopped by the addition of non-radiolabeled SAM (10 ul) to a final concentration of 400 uM, which dilutes the ^3H-SAM to a level where its incorporation into the peptide substrate is no longer detectable. 50 ul of the reaction in the 384-well polypropylene plate was then transferred to a 384-well Flashplate and the biotinylated peptides were allowed to bind to the streptavidin surface for at least 1 hour before being washed once with 0.1% Tween20 in a Biotek ELx405 plate washer. The plates were then read in a PerkinElmer TopCount plate reader to measure the quantity of ^3H-labeled peptide bound to the Flashplate surface, measured as disintegrations per minute (dpm) or alternatively, referred to as counts per minute (cpm).
Where dpm=disintegrations per minute, cmpd=signal in assay well, and min and max are the respective minimum and maximum signal controls.
Where top and bottom are the normally allowed to float, but may be fixed at 100 or 0 respectively in a 3-parameter fit. The Hill Coefficient normally allowed to float but may also be fixed at 1 in a 3-parameter fit. Y is the % inhibition and X is the compound concentration.

[1] = Table 2, biochemical evaluation, read-out: PRMT6 IC50 (class)
[2] = Table 2a, numerical, single experiment or average of multiple experiments, read-out: PRMT6 IC50

T1 sequence (Q96LA8 with tags, fused parts or gaps): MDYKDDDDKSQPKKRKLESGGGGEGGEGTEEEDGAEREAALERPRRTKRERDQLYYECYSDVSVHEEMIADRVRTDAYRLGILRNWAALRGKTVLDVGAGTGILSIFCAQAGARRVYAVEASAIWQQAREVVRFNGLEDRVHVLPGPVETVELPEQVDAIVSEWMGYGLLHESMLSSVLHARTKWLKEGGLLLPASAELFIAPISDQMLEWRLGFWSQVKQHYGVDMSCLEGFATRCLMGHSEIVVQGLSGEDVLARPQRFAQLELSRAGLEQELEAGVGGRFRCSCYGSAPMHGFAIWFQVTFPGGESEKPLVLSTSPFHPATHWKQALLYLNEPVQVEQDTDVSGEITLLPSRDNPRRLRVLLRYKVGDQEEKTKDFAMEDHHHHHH

| Structure (SMILES) | IC50 [1] [nM] | IC50 [2] [nM] |
| --- | --- | --- |
| CN(CCN)Cc1ncoc1-c1ccc(C#N)cc1 [Compound 1, 4-(4-(((2-aminoethyl)(methyl)amino)methyl)oxazol-5-yl)benzonitrile] | 101 to 1000 | 350 |
| CN(CCN)Cc1ccnn1-c1ccc(C#N)cc1 [Compound 2, 4-(5-(((2-aminoethyl)(methyl)amino)methyl)-1H-pyrazol-1-yl)benzonitrile] | < 100 | 98.7 |
| CN(CCN)Cc1n[nH]nc1-c1ccc(C#N)cc1 [Compound 3, 4-(5-(((2-aminoethyl)(methyl)amino)methyl)-2H-1,2,3-triazol-4-yl)benzonitrile] | < 100 | 70.3 |
| CN(CCN)Cc1ocnc1-c1ccc(C#N)cc1 [Compound 4, 4-(5-(((2-aminoethyl)(methyl)amino)methyl)oxazol-4-yl)benzonitrile] | 101 to 1000 | 168 |
| CN(CCN)Cc1cnnn1-c1ccc(C#N)cc1 [Compound 5, 4-(5-(((2-aminoethyl)(methyl)amino)methyl)-1H-1,2,3-triazol-1-yl)benzonitrile] | > 10000 | > 10000 |
| CN(CCN)Cc1cncn1-c1ccc(C#N)cc1 [Compound 6, 4-(5-(((2-aminoethyl)(methyl)amino)methyl)-1H-imidazol-1-yl)benzonitrile] | 1010 to 3000 | 1090 |
| CN(CCN)Cc1nsnc1-c1ccc(C#N)cc1 [Compound 7, 4-(4-(((2-aminoethyl)(methyl)amino)methyl)-1,2,5-thiadiazol-3-yl)benzonitrile] | 101 to 1000 | 112 |
| CC(C)Oc1ccc(-n2nccc2CN(C)CCN)cc1 [Compound 8, N^1-((1-(4-isopropoxyphenyl)-1H-pyrazol-5-yl)methyl)-N^1-methylethane-1,2-diamine] | < 100 | 46.4 |
| CN(CCN)Cc1ccnn1-c1ccc(Oc2ccccc2)cc1 [Compound 9] | < 100 | 6.72 |
| CN(CCN)Cc1[nH]cnc1-c1ccc(C#N)cc1 [Compound 10, 4-(5-(((2-aminoethyl)(methyl)amino)methyl)-1H-imidazol-4-yl)benzonitrile] | 101 to 1000 | 168 |
| CN(CCN)Cc1oncc1-c1ccc(F)cc1 [Compound 11, N^1-((4-(4-fluorophenyl)isoxazol-5-yl)methyl)-N^1-methylethane-1,2-diamine] | 1010 to 3000 | 2950 |
